Test results reported in US20100234221A1, “USE OF TETRAMIC ACID DERIVATIVES WITH FERTILIZERS” (BAYER CROPSCIENCE AG, priority 2006, published 2010).

Experiments:
[1] = system: Aphis gossypii; assay: Use Example A: field plots of cotton sprayed against Aphis gossypii; type: in vivo; details: cotton FM966LL field plots, I-4 44 g of a.i./ha, Dyne-amic 0.455 % (v/v), UAN 0.7 % (v/v) where added
Protocol: In three replications, plots of a size of about 66 m^2 with cotton of the cultivar FM966LL are treated against Aphis gossypii. Here, the active compound I-4 (as 1500D formulation) is applied with a sprayer (High Clearance Sprayer, High Boy) at the stated application rates. The amount of water applied is about 150 l/ha. An adjuvant and/or a fertilizer (UAN=ammonium nitrate/urea solution with 28% by weight of nitrogen) are added to the spray liquor at the stated concentration. Here, it becomes evident that the composition according to the invention is equivalent to a composition comprising an adjuvant known to be efficient.

[2] = system: cotton aphids (Aphis gossypii); assay: Example B-1: spray treatment of cotton plants heavily infested by cotton aphids; type: in vivo; details: AHL or NH4NO3 12.5 g/l, RME 1 g ai/l where added
Protocol: To prepare a suitable product solution, 1 part by weight of formulated goods (for example an oil suspension OD 150 prepared according to known methods) is mixed with water to give the desired concentration. The desired fertilizer or penetrant is added in a defined amount and mixed in well.
Cotton plants (Gossypium herbaceum) which are heavily infested by the cotton aphids (Aphis gossypii) are treated by spraying with the product solution at the desired concentration.
After the desired period of time, the kill in % is determined. Here, 100% means that all aphids have been killed; 0% means that none of the aphids have been killed.

## CCOC(=O)OC1=C(c2cc(C)ccc2C)C(=O)N[C@]12CC[C@@H](OC)CC2 [Compound I-4]
[1]; after 2 days
  Effect (% Abbott) After 2 days: 66.7 % Abbott
[1]; after 5 days
  Effect (% Abbott) After 5 days: 65.8 % Abbott
[1]; after 9 days
  Effect (% Abbott) After 9 days: 13.9 % Abbott
[2]; I-4 0.96 g ai/ha
  Kill in % after 7d: 25%
[2]; I-4 4.8 g ai/ha
  Kill in % after 7d: 90%
